# Data published in PMC5119973 (Cancer Medicine, 2016).
# Several values for one entry are separate records, joined by “and”; a condition that tells them apart may be missing. Identical values can stand only once.
# Columns and labels:
# Test in all cases: KINOMEscan active-site competitive binding assay
# Conditions in all cases: slash = two separate measurements
# MKNK2 = biological target: T1, MKNK2 (Homo sapiens, UniProt Q9HBH9)
# T1 construct: purchased DiscoveRx (KINOMEscan service)
# TNNI3K = biological target: T2, TNNI3K (Homo sapiens, UniProt Q59H18)
# T2 construct: purchased DiscoveRx
# T2 sequence (Q59H18 1-835): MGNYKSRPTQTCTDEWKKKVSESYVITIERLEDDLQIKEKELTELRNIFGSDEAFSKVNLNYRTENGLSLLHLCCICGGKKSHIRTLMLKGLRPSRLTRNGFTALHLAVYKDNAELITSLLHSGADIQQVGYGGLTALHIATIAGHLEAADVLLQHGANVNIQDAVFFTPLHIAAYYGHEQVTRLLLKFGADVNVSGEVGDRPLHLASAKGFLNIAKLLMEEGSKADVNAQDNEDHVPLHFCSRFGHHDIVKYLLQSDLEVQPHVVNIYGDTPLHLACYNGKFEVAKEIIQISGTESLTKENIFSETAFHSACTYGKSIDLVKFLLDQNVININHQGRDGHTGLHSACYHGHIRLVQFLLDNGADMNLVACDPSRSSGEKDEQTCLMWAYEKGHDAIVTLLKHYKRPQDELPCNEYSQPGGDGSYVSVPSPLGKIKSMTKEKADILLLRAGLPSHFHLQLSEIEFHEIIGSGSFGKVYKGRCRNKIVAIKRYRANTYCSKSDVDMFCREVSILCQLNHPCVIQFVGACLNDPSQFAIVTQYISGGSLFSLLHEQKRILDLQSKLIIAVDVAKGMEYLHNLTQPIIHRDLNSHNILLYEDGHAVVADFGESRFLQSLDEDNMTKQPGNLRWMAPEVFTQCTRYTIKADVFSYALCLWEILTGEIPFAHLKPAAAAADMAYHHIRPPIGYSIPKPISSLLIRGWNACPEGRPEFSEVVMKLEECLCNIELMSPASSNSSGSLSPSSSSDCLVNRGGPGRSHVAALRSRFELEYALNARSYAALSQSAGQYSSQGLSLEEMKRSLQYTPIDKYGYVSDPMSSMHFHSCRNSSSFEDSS
# LOK = biological target: T3, LOK (Homo sapiens, UniProt O94804)
# T3 construct: purchased DiscoveRx (KINOMEscan service)
# T3 sequence (O94804 whole entry): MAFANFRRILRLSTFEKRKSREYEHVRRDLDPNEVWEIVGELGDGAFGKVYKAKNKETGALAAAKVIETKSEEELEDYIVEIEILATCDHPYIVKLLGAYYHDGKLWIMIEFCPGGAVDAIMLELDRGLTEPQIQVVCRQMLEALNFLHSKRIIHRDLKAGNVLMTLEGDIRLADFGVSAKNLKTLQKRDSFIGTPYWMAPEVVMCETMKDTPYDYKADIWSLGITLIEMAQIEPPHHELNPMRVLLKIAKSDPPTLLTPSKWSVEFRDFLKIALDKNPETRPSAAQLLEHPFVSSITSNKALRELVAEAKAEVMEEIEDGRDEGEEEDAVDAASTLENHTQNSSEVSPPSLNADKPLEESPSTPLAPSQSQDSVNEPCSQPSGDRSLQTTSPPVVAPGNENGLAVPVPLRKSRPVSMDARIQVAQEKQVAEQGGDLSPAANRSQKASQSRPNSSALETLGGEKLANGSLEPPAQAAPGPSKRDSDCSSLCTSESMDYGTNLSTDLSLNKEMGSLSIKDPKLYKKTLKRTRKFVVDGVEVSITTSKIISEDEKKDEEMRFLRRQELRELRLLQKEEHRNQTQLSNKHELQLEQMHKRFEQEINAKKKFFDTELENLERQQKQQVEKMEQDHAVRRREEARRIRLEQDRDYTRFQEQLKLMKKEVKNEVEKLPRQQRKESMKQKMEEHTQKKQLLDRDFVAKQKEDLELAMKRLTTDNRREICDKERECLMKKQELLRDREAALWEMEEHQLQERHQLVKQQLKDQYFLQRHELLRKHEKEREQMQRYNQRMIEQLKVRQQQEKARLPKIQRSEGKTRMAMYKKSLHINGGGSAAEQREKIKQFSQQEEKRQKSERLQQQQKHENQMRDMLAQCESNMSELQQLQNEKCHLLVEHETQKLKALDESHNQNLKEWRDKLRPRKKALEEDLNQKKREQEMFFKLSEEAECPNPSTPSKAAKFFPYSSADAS
# TRKC = biological target: T4, TRKC (Homo sapiens, UniProt Q16288)
# T4 construct: purchased DiscoveRx
# T4 sequence (Q16288 32-839): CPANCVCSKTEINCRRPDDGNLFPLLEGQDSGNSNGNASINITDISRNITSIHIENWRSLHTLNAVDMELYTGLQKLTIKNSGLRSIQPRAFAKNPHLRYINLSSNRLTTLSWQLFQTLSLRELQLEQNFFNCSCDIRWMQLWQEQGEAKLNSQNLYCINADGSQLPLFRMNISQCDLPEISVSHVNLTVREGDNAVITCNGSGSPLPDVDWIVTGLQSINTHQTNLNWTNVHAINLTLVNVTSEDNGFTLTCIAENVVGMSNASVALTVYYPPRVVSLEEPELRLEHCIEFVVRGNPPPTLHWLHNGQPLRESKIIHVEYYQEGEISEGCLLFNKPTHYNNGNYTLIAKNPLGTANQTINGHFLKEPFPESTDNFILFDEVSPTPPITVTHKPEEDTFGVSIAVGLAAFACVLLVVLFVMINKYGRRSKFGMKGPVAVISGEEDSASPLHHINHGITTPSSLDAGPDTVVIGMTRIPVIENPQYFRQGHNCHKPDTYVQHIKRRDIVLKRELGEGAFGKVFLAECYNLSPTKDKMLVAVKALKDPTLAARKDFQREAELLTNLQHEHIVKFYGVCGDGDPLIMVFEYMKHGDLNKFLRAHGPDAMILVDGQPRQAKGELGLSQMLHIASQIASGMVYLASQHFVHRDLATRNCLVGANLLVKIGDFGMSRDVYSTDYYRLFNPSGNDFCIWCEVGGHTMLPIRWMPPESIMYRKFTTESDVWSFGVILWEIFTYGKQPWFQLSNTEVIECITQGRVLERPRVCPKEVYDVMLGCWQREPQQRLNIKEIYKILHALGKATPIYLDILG
# YSK4 = biological target: T5, YSK4 (Homo sapiens, UniProt Q56UN5)
# T5 construct: purchased DiscoveRx
# T5 sequence (Q56UN5 1-1328): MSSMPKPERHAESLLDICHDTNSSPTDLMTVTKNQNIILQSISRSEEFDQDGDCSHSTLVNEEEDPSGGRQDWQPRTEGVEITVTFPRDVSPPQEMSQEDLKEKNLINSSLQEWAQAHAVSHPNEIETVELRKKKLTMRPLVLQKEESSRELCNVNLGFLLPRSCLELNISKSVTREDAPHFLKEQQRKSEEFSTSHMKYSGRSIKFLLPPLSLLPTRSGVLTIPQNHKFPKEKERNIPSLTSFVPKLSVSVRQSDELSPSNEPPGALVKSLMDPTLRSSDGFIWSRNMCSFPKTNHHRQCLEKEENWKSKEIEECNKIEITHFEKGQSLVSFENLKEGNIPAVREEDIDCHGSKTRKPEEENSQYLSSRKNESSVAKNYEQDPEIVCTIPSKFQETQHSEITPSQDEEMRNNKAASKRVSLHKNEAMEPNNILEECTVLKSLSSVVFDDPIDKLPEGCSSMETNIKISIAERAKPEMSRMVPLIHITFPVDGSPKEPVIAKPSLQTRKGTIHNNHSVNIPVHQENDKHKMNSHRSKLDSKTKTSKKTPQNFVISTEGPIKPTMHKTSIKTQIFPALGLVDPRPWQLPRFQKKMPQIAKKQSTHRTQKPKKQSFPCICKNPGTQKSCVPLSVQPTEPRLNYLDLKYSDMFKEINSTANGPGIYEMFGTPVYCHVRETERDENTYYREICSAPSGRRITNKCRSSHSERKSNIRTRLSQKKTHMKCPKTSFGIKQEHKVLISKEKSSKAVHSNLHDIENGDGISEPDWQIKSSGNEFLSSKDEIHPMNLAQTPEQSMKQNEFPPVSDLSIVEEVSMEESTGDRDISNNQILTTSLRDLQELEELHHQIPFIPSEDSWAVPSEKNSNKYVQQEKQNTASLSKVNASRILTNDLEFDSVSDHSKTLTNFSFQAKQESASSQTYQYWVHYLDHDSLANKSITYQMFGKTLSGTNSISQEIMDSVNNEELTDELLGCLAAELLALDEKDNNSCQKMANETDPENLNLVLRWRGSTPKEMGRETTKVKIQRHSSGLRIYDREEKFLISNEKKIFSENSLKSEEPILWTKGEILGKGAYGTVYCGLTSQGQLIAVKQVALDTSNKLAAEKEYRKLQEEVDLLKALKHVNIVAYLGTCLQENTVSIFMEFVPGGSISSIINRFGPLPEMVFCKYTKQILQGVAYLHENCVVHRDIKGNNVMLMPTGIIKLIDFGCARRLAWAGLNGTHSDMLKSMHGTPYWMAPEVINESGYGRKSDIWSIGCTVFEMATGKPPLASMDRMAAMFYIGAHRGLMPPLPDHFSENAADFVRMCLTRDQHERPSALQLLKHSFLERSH
# ERK8 = biological target: T6, ERK8 (Homo sapiens, UniProt Q8TD08)
# T6 construct: purchased DiscoveRx (KINOMEscan service)
# T6 sequence (Q8TD08 1-544): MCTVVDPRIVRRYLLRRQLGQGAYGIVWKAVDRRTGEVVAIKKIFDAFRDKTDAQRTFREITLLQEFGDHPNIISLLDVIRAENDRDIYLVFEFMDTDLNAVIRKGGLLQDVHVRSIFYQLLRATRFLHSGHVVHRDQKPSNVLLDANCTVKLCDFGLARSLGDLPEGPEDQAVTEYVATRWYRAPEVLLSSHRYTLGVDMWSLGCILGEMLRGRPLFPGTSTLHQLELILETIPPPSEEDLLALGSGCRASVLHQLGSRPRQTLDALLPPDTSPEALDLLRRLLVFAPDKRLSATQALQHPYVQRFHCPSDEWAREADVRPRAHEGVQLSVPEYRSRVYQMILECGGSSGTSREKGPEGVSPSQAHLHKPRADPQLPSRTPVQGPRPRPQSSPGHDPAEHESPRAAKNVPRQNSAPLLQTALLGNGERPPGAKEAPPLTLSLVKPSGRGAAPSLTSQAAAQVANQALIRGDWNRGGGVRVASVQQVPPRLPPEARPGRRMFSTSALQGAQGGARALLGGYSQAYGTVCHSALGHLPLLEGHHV
# T1 sequence (Q9HBH9 whole entry): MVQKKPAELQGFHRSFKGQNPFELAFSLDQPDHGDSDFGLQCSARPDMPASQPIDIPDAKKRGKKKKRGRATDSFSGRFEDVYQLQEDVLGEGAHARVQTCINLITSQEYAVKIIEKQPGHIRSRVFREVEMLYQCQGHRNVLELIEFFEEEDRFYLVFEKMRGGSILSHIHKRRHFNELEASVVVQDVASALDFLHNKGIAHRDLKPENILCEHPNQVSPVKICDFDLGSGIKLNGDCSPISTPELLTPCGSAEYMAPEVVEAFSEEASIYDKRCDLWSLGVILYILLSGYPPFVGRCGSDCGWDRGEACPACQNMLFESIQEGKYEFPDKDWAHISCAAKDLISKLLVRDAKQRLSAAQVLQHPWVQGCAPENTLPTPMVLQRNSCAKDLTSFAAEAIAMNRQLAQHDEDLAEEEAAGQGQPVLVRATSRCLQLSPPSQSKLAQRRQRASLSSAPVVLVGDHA
SMILES,Kd (MKNK2),Kd (TNNI3K),Kd (LOK),Kd (TRKC),Kd (YSK4),Kd (ERK8)
CNC(=O)c1cc(Oc2ccc(NC(=O)Nc3ccc(Cl)c(C(F)(F)F)c3)c(F)c2)cc[n+]1[O-] [M‐2],20 nM,160 nM,9.3 nM,15 nM,55 nM,16 nM
"CNC(=O)c1cc(Oc2ccc(NC(=O)Nc3ccc(Cl)c(C(F)(F)F)c3)c(F)c2)ccn1 [Regorafenib, reference compound]",90 nM and 64 nM,170 nM and 110 nM,15 nM and 10 nM,180 nM and 280 nM,38 nM and 94 nM,25 nM and 17 nM
NC(=O)c1cc(Oc2ccc(NC(=O)Nc3ccc(Cl)c(C(F)(F)F)c3)c(F)c2)cc[n+]1[O-] [M‐5],11 nM,77 nM,11 nM,56 nM,70 nM,26 nM
